From PubChem BioAssay AID1963976 (Molecular Pharmacology Branch, DTP, NCI, 2024)
Several values for one entry are separate records, joined by “and”; a condition that tells them apart may be missing. Identical values can stand only once.

Test system: 435261-313-R-J1-PDC tumor spheroid viability
Experiment: Anticancer human tumor 435261-313-R-J1-PDC patient-derived colon adenocarcinoma cell line growth inhibition [PI3K]
Settings: spheroids with HUVEC and MSC; for viability, T/C: stronger effect = lower value
Procedure, shortened: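 Tumor cells were combined with HUVEC and MSCs into spheroids, then dosed with PI3K-inhibitor combinations over half-log ranges capped near clinical Cmax or 10 microM.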
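Note: spheroids exposed to compounds for 7 days.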

C=CC(=O)N1CCN(c2nc(=O)n(-c3c(C)ccnc3C(C)C)c3nc(-c4c(O)cccc4F)c(F)cc23)C(C)C1 (centres undefined) + CC(Nc1ccc2c(c1)OCCn1cc(N3C(=O)OCC3C(F)F)nc1-2)C(N)=O
IC50 (curve of first compound, second compound 0.00316 µM): > 10 µM | IC50 (curve of first compound, second compound 0.01 µM): > 10 µM | IC50 (curve of first compound, second compound 0.0316 µM): > 10 µM | IC50 (curve of first compound, second compound 0.1 µM): < 0.0316 µM | IC50 (curve of first compound, second compound 0.316 µM): < 0.0316 µM | IC50 (curve of first compound, second compound 1 µM): < 0.0316 µM | viability, T/C (second compound 0.00316 µM, first compound 0.0316 µM): 83.2% | viability, T/C (second compound 0.00316 µM, first compound 0.1 µM): 81.4% | viability, T/C (second compound 0.00316 µM, first compound 0.316 µM): 111% | viability, T/C (second compound 0.00316 µM, first compound 1 µM): 126% | viability, T/C (second compound 0.00316 µM, first compound 3.16 µM): 117% | viability, T/C (second compound 0.00316 µM, first compound 10 µM): 120% | viability, T/C (second compound 0.01 µM, first compound 0.0316 µM): 99.2% | viability, T/C (second compound 0.01 µM, first compound 0.1 µM): 88.4% | viability, T/C (second compound 0.01 µM, first compound 0.316 µM): 95.1% | viability, T/C (second compound 0.01 µM, first compound 1 µM): 89.5% | viability, T/C (second compound 0.01 µM, first compound 3.16 µM): 91.7% | viability, T/C (second compound 0.01 µM, first compound 10 µM): 111% | viability, T/C (second compound 0.0316 µM, first compound 0.0316 µM): 70.7% | viability, T/C (second compound 0.0316 µM, first compound 0.1 µM): 78.6% | viability, T/C (second compound 0.0316 µM, first compound 0.316 µM): 71.5% | viability, T/C (second compound 0.0316 µM, first compound 1 µM): 70.2% | viability, T/C (second compound 0.0316 µM, first compound 3.16 µM): 87.4% | viability, T/C (second compound 0.0316 µM, first compound 10 µM): 101% | viability, T/C (second compound 0.1 µM, first compound 0.0316 µM): 49.7% | viability, T/C (second compound 0.1 µM, first compound 0.1 µM): 42.6% | viability, T/C (second compound 0.1 µM, first compound 0.316 µM): 45.5% | viability, T/C (second compound 0.1 µM, first compound 1 µM): 37.9% | viability, T/C (second compound 0.1 µM, first compound 3.16 µM): 60.9% | viability, T/C (second compound 0.1 µM, first compound 10 µM): 54.5% | viability, T/C (second compound 0.316 µM, first compound 0.0316 µM): 20.8% | viability, T/C (second compound 0.316 µM, first compound 0.1 µM): 22% | viability, T/C (second compound 0.316 µM, first compound 0.316 µM): 27% | viability, T/C (second compound 0.316 µM, first compound 1 µM): 22.8% | viability, T/C (second compound 0.316 µM, first compound 3.16 µM): 25.5% | viability, T/C (second compound 0.316 µM, first compound 10 µM): 21.1% | viability, T/C (second compound 1 µM, first compound 0.0316 µM): 20.2% | viability, T/C (second compound 1 µM, first compound 0.1 µM): 16.5% | viability, T/C (second compound 1 µM, first compound 0.316 µM): 18.1% | viability, T/C (second compound 1 µM, first compound 1 µM): 20.4% | viability, T/C (second compound 1 µM, first compound 3.16 µM): 14.9% | viability, T/C (second compound 1 µM, first compound 10 µM): 17.9%

C[C@@H](NC(=O)c1ncnc(N)c1Cl)c1ncc(C(=O)Nc2cc(C(F)(F)F)c(Cl)cn2)s1
viability, T/C (compound 0.0316 µM): 133% and 131% and 118% | viability, T/C (compound 0.1 µM): 127% and 106% and 111% | viability, T/C (compound 0.316 µM): 154% and 79.3% and 153% | viability, T/C (compound 1 µM): 151% and 130% and 124% | viability, T/C (compound 3.16 µM): 146% and 120% and 129% | viability, T/C (compound 10 µM): 120% and 114% and 88.1% | IC50 (curve of compound): > 10 µM
